Test results reported in article PMC5556071, “ATR inhibition facilitates targeting of leukemia dependence on convergent nucleotide biosynthetic pathways” (Nature Communications, 2017).
“And” between values parts separate entries of the source, which are not always exact repeats. Equal entries are not always repeated.

Columns and labels:
Type in all cases: cell-based, human
Jurkat cells = test: Cell cycle histograms (propidium iodide flow cytometry); settings: dCKi 1 µM, 24 h
Method: Cell cycle histograms. Cells were plated at a density of 0.5 x 10^6 cells/mL in respective media or drug treated
media. Following 24 h incubation, cells were harvested and washed twice with PBS twice before staining with
0.5 ml of propidium iodide (Calbiochem, #P3566, 1 µg/mL) solution containing Ribonuclease A and 0.3%
Triton-X 100. The samples were protected from light before acquisition by flow cytometry. […]

CEM cells = test: Proliferation assay (CellTiter-Glo, 72 h)
Method: Cells were plated in 384-well plates (1000 cells/well for suspension cell lines and 500 cells/well for adherent cell lines in 30 µl volume). Drugs were serially diluted to the desired concentrations and an equivalent volume of DMSO was added to vehicle control. Ten microliter of the 4× diluted drugs were added to each well. Following 72 h incubation, ATP content was measured using CellTiter-Glo reagent according to manufacturer’s instructions (Promega, CellTiter-Glo Luminescent Cell Viability Assay), and analyzed by SpectraMax luminometer (Molecular Devices). IC50 values, concentrations required to inhibit proliferation by 50% compared to DMSO treated cells, were calculated using Prism 6.0 h (Graphpad Software).

RRM2 pT33 = test: Phosphoproteomic nLC-MS/MS analysis of RRM2 phosphorylation; design: key to RNR pT33: ↓: partial decrease/inhibition; ↓↓↓: nearly complete inhibition; ↑: increase; ⟷: no change
Method: against both the Uniprot human FASTA database and a decoy database of the Uniprot human database which read from C-terminus to N-terminus; Percolator was used to filter the data at 1% FDR at both the peptide and […]
Phosphoproteomic analyses. CCRF-CEM cells were prepared same as the asynchronous CEM cells total protein digests above, except that a total of 7.5 mg total protein from 1 x 10^8 cells was collected per treatment condition for phosphoproteomic analysis. tC18 Sep-Pak cartridges (Waters) were used for peptide desalting and Pierce Quantitative Colorimetric Peptide Assay was performed prior to phosphopeptide enrichment.
Hydrophilic interaction chromatography (HILIC) and immobilized metal affinity chromatography (IMAC) were performed same as previously described4. Data dependent nLC-MS/MS was performed on Thermo QExactive Plus same as above. Raw data was searched against Uniprot human database using MaxQuant 1.5.3.30 with the following search parameters: trypsin cleavage allowing up to 2 missed cleavages, fixed modification of carbamidomethyl to cysteines, variable modifications of acetylation to protein N-terminus, methionine oxidation, and phosphorylation to serine, threonine, and tyrosine, 10 ppm and 20 mmu mass errors for full MS and MS/MS, respectively, score of 40 or greater for modified peptides, and 1% false-discovery rate on peptide and protein identifications. Identified phosphopeptides were manually quantified by area-based extracted ion chromatograms of the monoisotopic peak. […]
Plasma samples were processed the same way as the calibration standard samples. 20 μL samples were injected onto a reverse phase column, (Thermo Scientific Hypersil GOLD column 3.0 µm; 2.1 x 100 mm) equilibrated in water/formic acid, 100/0.1, and eluted (200 μL/min) with an increasing concentration of solvent […]
The effluent from the column was directed to the Agilent Jet Stream ion source connected to the triple quadrupole mass spectrometer (Agilent 6460) operating in the multiple reaction monitoring (MRM) mode using previously optimized settings. The following drug precursor→fragment ion transitions were used: 3-AP

asynchronous CEM cells = test: Quantitative global proteomics (nLC-MS/MS), asynchronous cells
Method: To investigate the molecular mechanisms underlying the metabolic consequences of ATR and dCK inhibition, global changes in protein expression were assessed in CEM cells using quantitative nano-LC tandem MS (nLC-MS/MS) (Fig. 2a). Chemical isotope coding following reductive dimethylation of peptide N-termini and lysine primary amines with differential stable isotopes (light:medium:heavy) was used to compare expression of experimental (VE-822, dCKi and VE-822 + dCKi) samples to controls (untreated, NT) by mixing equal proportions for triplex nLC-MS/MS quantitative analyses. The data set was filtered for proteins identified in all treatment groups in three independent experiments with coefficients of variation <20%. This yielded 1757 proteins with relative fold changes in treated vs. untreated cells ranging from 0.45 to 1.83. […] Protein levels of both RNR subunits, RRM1 and RRM2, as well as thymidylate synthase decreased by more than 20% following ATR inhibition (Fig. 2c). Changes in the expression of de novo enzymes observed in synchronous cells also occurred with ATR inhibition in asynchronous CEM cells (Fig. 2d and Supplementary Data 3), thereby arguing against the possibility of experimental artifacts introduced by Palbociclib-mediated cell cycle synchronization. The reduction in RRM2 levels induced by ATR inhibition was accompanied by an ~ 50% decrease in the phosphorylation of RRM2 on threonine 33 (pT33) (Fig. 2e), a phosphosite previously linked to the RRM2 stability. […]
Proteomic analyzes. CCRF-CEM cells were treated ± with a CDK4/6 inhibitor, PD-0332991 (Selleckchem) for 18 h to arrest at G1 phase. Cells were then washed twice with PBS and released in fresh media with treatment at a density of 1 x 10^6 cells/mL. Cells were collected at 12 h, washed twice with ice-cold PBS, and lysed by trituration using 1 mL per 5 x 10^7 cells of 0.5% sodium deoxycholate, 12 mM sodium lauryl sarcosine, and 50 mM triethylammonium bicarbonate, pH 8.0. Lysates were heated at 95 °C for 5 min and water bath sonicated at room temperature (RT) for 5 min. Bicinchoninic acid protein assay (Pierce) was performed to determine protein concentration. Disulfide bridges were reduced with 5 mM tris(2-carboxyethyl)phosphine (final concentration) at RT for 30 min with subsequent treatment with 10 mM iodoacetamide (final concentration) at RT in the dark for 30 min. Solutions were diluted 1:5 (v:v) with 50 mM triethylammonium bicarbonate. Proteins were cleaved with sequencing grade trypsin (Promega) at 1:100 (enzyme:protein) for 4 h at 37 °C followed by a second aliquot of trypsin 1:100 (enzyme:protein) overnight at 37 °C. Samples were acidified with 0.5% trifluoroacetic acid (final concentration), vortexed rapidly for 5 min, and centrifuged (16,000 x g for 5 min, RT) to pellet sodium deoxycholate. Supernatants were transferred to new microcentrifuge tubes and 20 µg of total peptide were desalted using C18 StageTips as previously described2. On-column dimethyl labeling using C18 StageTips was performed as previously described3. Briefly, StageTips were equilibrated with 20 μL of 250 mM 2-(N-morpholino)ethanesulfonic acid (MES) pH 5.5. Tryptic peptides were dimethyl labeled using 60 mM sodium cyanoborohydride, 0.4% formaldehyde, and 250 mM MES pH 5.5 for 10 min. Dimethyl labeled peptides were eluted from StageTips using 20 μL of 80% acetonitrile with 0.1% trifluoroacetic acid and lyophilized to dryness. […]

[1] = Suppl. Fig. 5e, BCX-1777 100 nM
[2] = asynchronous CEM, VE-822 1 µM, 12 h
[3] = 1 µM VE-822, 12 h, analyses #1-#3

With `COc1ccc(-c2nc([C@@H](C)Sc3nc(N)cc(N)n3)c(C)s2)cc1OCCNS(C)(=O)=O` [dCKi] the “cells in G2/M” value (Jurkat cells; Suppl. Fig. 4e, dCF 10 µM) was 17%, the “cells in S phase” value (Jurkat cells; Suppl. Fig. 4e, dCF 10 µM) was 30% and the “cells in G2/M” value (Jurkat cells; [1]) was 14%. For the same compound, the “cells in S phase” value (Jurkat cells; [1]) was 32%.
`NC(=S)N/N=C/c1ncccc1N` [3-AP] showed an IC50 (CEM cells) of 1.06 µM.
For `CNCc1ccc(-c2cc(-c3nc(-c4ccc(S(=O)(=O)C(C)C)cc4)cnc3N)on2)cc1` [VE-822], the “decrease in the phosphorylation of RRM2 on threonine 33 (pT33)” value (RRM2 pT33; [2]) was ~ 50%, the “mean fold change of RRM2 pT33 normalized to total RRM2” value (RRM2 pT33; [2]) was 0.43 ± 0.1 fold and the “observed fold decrease for pT33 (phosphoproteomic nLC-MS/MS)” value (RRM2 pT33; [2]) was 0.34 fold. For the same compound, the “RNR pT33” value (RRM2 pT33; summary Fig. 2g, CEM cells) was “↓”, the “Protein expression level normalized to control (NT): Apoptosis regulatory protein Siva (SIVA1)” value (asynchronous CEM cells; [3]) was 0.5843 and 0.5702 and 0.5605 and the “Protein expression level normalized to control (NT): Aspartate--tRNA ligase, cytoplasmic (DARS)” value (asynchronous CEM cells; [3]) was 0.9056 and 0.9095. The “Protein expression level normalized to control (NT): Eukaryotic translation initiation factor 2 subunit 3 (EIF2S3;EIF2S3L)” value (asynchronous CEM cells; [3]) was 0.9499 and 0.9479 and 0.9485, the “Protein expression level normalized to control (NT): GA-binding protein alpha chain (GABPA)” value (asynchronous CEM cells; [3]) was 0.6147 and 0.6159 and 0.6369 and the “observed fold decrease in total RRM2 protein (proteomic nLC-MS/MS)” value (asynchronous CEM cells; [2]) was 0.77 fold.
